Assay results as given in patent US20100063047A1 (KALYPSYS, INC., priority 2008, published 2010).

How the values were obtained:
human H1 = target: T1, human H1 (Homo sapiens, UniProt P35367); assay: In vitro histamine H1 receptor cell-based aequorin bioluminescence antagonist assay; conditions: CHO-K1 cells expressing human H1 and aequorin; histamine at EC80; read-out: H1 Antagonist EC50
T1 construct: host or cells: CHO-K1, also expressing mitochondrion-targeted aequorin
How it was run: (§1)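 CHO-K1 cells stably expressing human H1 or H4 plus mitochondrial aequorin (H4 also with Gα16), loaded with 5 μM coelenterazine-h for 4 h at ~21 °C. Compounds preincubated 15 min at room temperature, then histamine at EC80 added.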

human H4 = target: T2, human H4 (Homo sapiens, UniProt Q9H3N8); assay: In vitro histamine H4 receptor cell-based aequorin bioluminescence antagonist assay; conditions: CHO-K1 cells expressing human H4, aequorin and Gα16; histamine at EC80
T2 construct: host or cells: CHO-K1, also expressing mitochondrion-targeted aequorin and human Gα16
T2 sequence (Q9H3N8 whole entry): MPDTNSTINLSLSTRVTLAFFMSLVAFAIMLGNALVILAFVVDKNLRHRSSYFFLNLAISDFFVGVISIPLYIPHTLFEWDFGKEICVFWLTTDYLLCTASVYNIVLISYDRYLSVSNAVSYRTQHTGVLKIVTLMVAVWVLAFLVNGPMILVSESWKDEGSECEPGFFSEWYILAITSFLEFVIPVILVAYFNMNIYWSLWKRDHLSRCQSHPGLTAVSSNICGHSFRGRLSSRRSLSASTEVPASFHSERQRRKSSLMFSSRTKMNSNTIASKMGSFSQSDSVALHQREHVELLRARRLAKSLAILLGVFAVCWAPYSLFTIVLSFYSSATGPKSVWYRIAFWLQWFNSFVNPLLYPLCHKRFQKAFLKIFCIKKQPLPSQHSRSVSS
How it was run: as §1

T1 sequence (P35367 whole entry): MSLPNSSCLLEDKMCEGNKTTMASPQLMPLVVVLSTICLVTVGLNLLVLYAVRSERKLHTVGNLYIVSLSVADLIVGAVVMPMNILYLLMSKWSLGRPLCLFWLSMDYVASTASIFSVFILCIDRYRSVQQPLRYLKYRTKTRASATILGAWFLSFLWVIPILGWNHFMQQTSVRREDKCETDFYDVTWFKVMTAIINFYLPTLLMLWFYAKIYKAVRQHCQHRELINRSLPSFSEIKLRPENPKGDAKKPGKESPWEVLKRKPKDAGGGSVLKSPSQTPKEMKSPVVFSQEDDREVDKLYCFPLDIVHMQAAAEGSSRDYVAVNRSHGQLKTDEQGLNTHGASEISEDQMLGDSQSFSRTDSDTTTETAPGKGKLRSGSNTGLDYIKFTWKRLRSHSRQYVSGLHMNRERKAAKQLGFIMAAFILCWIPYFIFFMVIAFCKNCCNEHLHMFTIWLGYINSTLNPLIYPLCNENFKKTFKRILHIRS

Cc1csc2ncnc(N(C)CCO)c12 [Example 183, 2-[methyl({5-methylthieno[2,3-d]pyrimidin-4-yl})amino]ethan-1-ol]
EC50 (human H1): > 10 µM
EC50 (human H4): > 10 µM

Cc1csc2ncnc(N3CCN(c4ccc(F)cc4)CC3)c12 [Example 246, 1-(4-fluorophenyl)-4-{5-methylthieno[2,3-d]pyrimidin-4-yl}piperazine]
EC50 (human H1): > 10 µM
EC50 (human H4): > 10 µM

Cc1csc2ncnc(NCCN(C)C)c12 [Example 70, dimethyl[2-({5-methylthieno[2,3-d]pyrimidin-4-yl}amino)ethyl]amine]
EC50 (human H1): > 10 µM
EC50 (human H4): > 10 µM

Cc1csc2ncnc(NCCN(C(C)C)C(C)C)c12 [Example 137]
EC50 (human H1): > 10 µM
EC50 (human H4): > 10 µM

Cc1csc2ncnc(N(C)C3CCCCC3)c12 [Example 200, N-cyclohexyl-N,5-dimethylthieno[2,3-d]pyrimidin-4-amine]
EC50 (human H1): > 10 µM
EC50 (human H4): > 10 µM

Cc1csc2ncnc(N3CCN(c4ccccn4)CC3)c12 [Example 234, 1-{5-methylthieno[2,3-d]pyrimidin-4-yl}-4-(pyridin-2-yl)piperazine]
EC50 (human H1): > 10 µM
EC50 (human H4): > 10 µM

Cc1csc2ncnc(N(CCO)CCO)c12 [Example 198, 2-[(2-hydroxyethyl)({5-methylthieno[2,3-d]pyrimidin-4-yl})amino]ethan-1-ol]
EC50 (human H1): > 10 µM
EC50 (human H4): > 10 µM

Cc1csc2ncnc(NCCCn3ccnc3)c12 [Example 105, N-[3-(1H-imidazol-1-yl)propyl]-5-methylthieno[2,3-d]pyrimidin-4-amine]
EC50 (human H1): > 10 µM
EC50 (human H4): > 10 µM

Cc1csc2ncnc(N3CCN(C4CCCCC4)CC3)c12 [Example 239, 1-cyclohexyl-4-{5-methylthieno[2,3-d]pyrimidin-4-yl}piperazine]
EC50 (human H1): > 10 µM
EC50 (human H4): > 10 µM

Cc1csc2ncnc(NCCN3CCCCC3)c12 [Example 107, 5-methyl-N-[2-(piperidin-1-yl)ethyl]thieno[2,3-d]pyrimidin-4-amine]
EC50 (human H1): > 10 µM
EC50 (human H4): > 10 µM

Cc1csc2ncnc(NC3CC3)c12 [Example 53, N-cyclopropyl-5-methylthieno[2,3-d]pyrimidin-4-amine]
EC50 (human H1): > 10 µM
EC50 (human H4): > 10 µM

Cc1ccc(N2CCN(c3ncnc4scc(C)c34)CC2)cc1C [Example 257, 1-(3,4-dimethylphenyl)-4-{5-methylthieno[2,3-d]pyrimidin-4-yl}piperazine]
EC50 (human H1): > 10 µM
EC50 (human H4): > 10 µM

Cc1csc2ncnc(CNCc3ccc(Cl)cc3)c12 [Example 35, N-(4-chlorobenzyl)-1-(5-methylthieno[2,3-d]pyrimidin-4-yl)methanamine]
EC50 (human H1): > 10 µM
EC50 (human H4): > 10 µM

Cc1csc2ncnc(N3CCN(c4cccc(Cl)c4)CC3)c12 [Example 265, 1-(3-chlorophenyl)-4-{5-methylthieno[2,3-d]pyrimidin-4-yl}piperazine]
EC50 (human H1): > 10 µM
EC50 (human H4): > 10 µM

C=CCN(c1ncnc2scc(C)c12)C1CCCCC1 [Example 223, N-cyclohexyl-5-methyl-N-(prop-2-en-1-yl)thieno[2,3-d]pyrimidin-4-amine]
EC50 (human H1): > 10 µM
EC50 (human H4): > 10 µM

Cc1csc2ncnc(N(C)Cc3cccc4ccccc34)c12 [Example 274, N,5-dimethyl-N-(naphthalen-1-ylmethyl)thieno[2,3-d]pyrimidin-4-amine]
EC50 (human H1): > 10 µM
EC50 (human H4): > 10 µM

Cc1csc2ncnc(N3CCC[C@@H]3CO)c12 [Example 194, [(2R)-1-{5-methylthieno[2,3-d]pyrimidin-4-yl}pyrrolidin-2-yl]methanol]
EC50 (human H1): > 10 µM
EC50 (human H4): > 10 µM

Cc1csc2ncnc(NC3CCCc4ccccc43)c12 (stereo not drawn) [Example 138, 5-methyl-N-(1,2,3,4-tetrahydronaphthalen-1-yl)thieno[2,3-d]pyrimidin-4-amine]
EC50 (human H1): > 10 µM
EC50 (human H4): > 10 µM

COc1ccccc1N1CCN(c2ncnc3scc(C)c23)CC1 [Example 262, 1-(2-methoxyphenyl)-4-{5-methylthieno[2,3-d]pyrimidin-4-yl}piperazine]
EC50 (human H1): > 10 µM
EC50 (human H4): > 10 µM

Cc1csc2ncnc(NCCCCO)c12 [Example 74, 4-({5-methylthieno[2,3-d]pyrimidin-4-yl}amino)butan-1-ol]
EC50 (human H1): > 10 µM
EC50 (human H4): > 10 µM

Cc1csc2ncnc(N(C)CC(C)C)c12 [Example 185, N,5-dimethyl-N-(2-methylpropyl)thieno[2,3-d]pyrimidin-4-amine]
EC50 (human H1): > 10 µM
EC50 (human H4): > 10 µM

Cc1csc2ncnc(NCCC3CCCN3C)c12 (stereo not drawn) [Example 106, 5-methyl-N-[2-(1-methylpyrrolidin-2-yl)ethyl]thieno[2,3-d]pyrimidin-4-amine]
EC50 (human H1): > 10 µM
EC50 (human H4): > 10 µM

Cc1csc2ncnc(N3CCCC(C(N)=O)C3)c12 (stereo not drawn) [Example 213, 1-{5-methylthieno[2,3-d]pyrimidin-4-yl}piperidine-3-carboxamide]
EC50 (human H1): > 10 µM
EC50 (human H4): > 10 µM

COc1ccc(CNc2ncnc3scc(C)c23)cc1O [Example 171, 2-methoxy-5-[({5-methylthieno[2,3-d]pyrimidin-4-yl}amino)methyl]phenol]
EC50 (human H1): > 10 µM
EC50 (human H4): > 10 µM

Cc1csc2ncnc(NCC(C)C)c12 [Example 61, 5-methyl-N-(2-methylpropyl)thieno[2,3-d]pyrimidin-4-amine]
EC50 (human H1): > 10 µM
EC50 (human H4): > 10 µM

Cc1csc2ncnc(N3CCCN(Cc4ccccc4)CC3)c12 [Example 242, 1-benzyl-4-{5-methylthieno[2,3-d]pyrimidin-4-yl}-1,4-diazepane]
EC50 (human H1): > 10 µM
EC50 (human H4): > 10 µM

Cc1csc2ncnc(N(Cc3ccccc3)C(C)C)c12 [Example 225, N-benzyl-5-methyl-N-(propan-2-yl)thieno[2,3-d]pyrimidin-4-amine]
EC50 (human H1): > 10 µM
EC50 (human H4): > 10 µM

Cc1csc2ncnc(CCNc3ccc(Cl)cc3)c12 [Example 32, 4-chloro-N-(2-(5-methylthieno[2,3-d]pyrimidin-4-yl)ethyl)aniline]
EC50 (human H1): > 10 µM
EC50 (human H4): > 10 µM

Cc1csc2ncnc(N(C)C)c12 [Example 178, N,N,5-trimethylthieno[2,3-d]pyrimidin-4-amine]
EC50 (human H1): > 10 µM
EC50 (human H4): > 10 µM

COc1cccc(N2CCN(c3ncnc4scc(C)c34)CC2)c1 [Example 263, 1-(3-methoxyphenyl)-4-{5-methylthieno[2,3-d]pyrimidin-4-yl}piperazine]
EC50 (human H1): > 10 µM
EC50 (human H4): > 10 µM

Cc1csc2ncnc(N3CCC(O)(O)CC3)c12 [Example 228, 1-{5-methylthieno[2,3-d]pyrimidin-4-yl}piperidine-4,4-diol]
EC50 (human H1): > 10 µM
EC50 (human H4): > 10 µM

COc1ccc(C(=O)CNc2ncnc3scc(C)c23)cc1 [Example 174, 1-(4-methoxyphenyl)-2-({5-methylthieno[2,3-d]pyrimidin-4-yl}amino)ethan-1-one]
EC50 (human H1): > 10 µM
EC50 (human H4): > 10 µM

Cc1csc2ncnc(CC(=O)Nc3ccc(Cl)cc3)c12 [Example 33, N-(4-chlorophenyl)-2-(5-methylthieno[2,3-d]pyrimidin-4-yl)acetamide]
EC50 (human H1): > 10 µM
EC50 (human H4): > 10 µM

CCN(CCO)c1ncnc2scc(C)c12 [Example 188, 2-[ethyl({5-methylthieno[2,3-d]pyrimidin-4-yl})amino]ethan-1-ol]
EC50 (human H1): > 10 µM
EC50 (human H4): > 10 µM

Cc1csc2ncnc(N(C)C(Cc3ccccc3)c3ccccc3)c12 (stereo not drawn) [Example 278, N-(1,2-diphenylethyl)-N,5-dimethylthieno[2,3-d]pyrimidin-4-amine]
EC50 (human H1): > 10 µM
EC50 (human H4): > 10 µM

Cc1csc2ncnc(NN3CCOCC3)c12 [Example 81, N-{5-methylthieno[2,3-d]pyrimidin-4-yl}morpholin-4-amine]
EC50 (human H1): > 10 µM
EC50 (human H4): > 10 µM

Cc1csc2ncnc(N3CCN(c4ccc(C(F)(F)F)cn4)CC3)c12 [Example 2, 5-methyl-4-(4-(5-(trifluoromethyl)pyridin-2-yl)piperazin-1-yl)thieno[2,3-d]pyrimidine]
EC50 (human H1): > 10 µM
EC50 (human H4): > 10 µM

Cc1csc2ncnc(N3C[C@@H](C)N[C@@H](C)C3)c12 [Example 203, (3R,5S)-3,5-dimethyl-1-{5-methylthieno[2,3-d]pyrimidin-4-yl}piperazine]
EC50 (human H1): > 10 µM
EC50 (human H4): > 10 µM

CCN(c1ncnc2scc(C)c12)C(C)C [Example 186, N-ethyl-5-methyl-N-(propan-2-yl)thieno[2,3-d]pyrimidin-4-amine]
EC50 (human H1): > 10 µM
EC50 (human H4): > 10 µM

Cc1csc2ncnc(NCc3ccc(N(C)C)cc3)c12 [Example 170, N-{[4-(dimethylamino)phenyl]methyl}-5-methylthieno[2,3-d]pyrimidin-4-amine]
EC50 (human H1): > 10 µM
EC50 (human H4): > 10 µM

Cc1csc2ncnc(N(C)CC(O)c3ccc(O)cc3)c12 (stereo not drawn) [Example 238, 4-{1-hydroxy-2-[methyl({5-methylthieno[2,3-d]pyrimidin-4-yl})amino]ethyl}phenol]
EC50 (human H1): > 10 µM
EC50 (human H4): > 10 µM

Cc1csc2ncnc(NC3CONC3=O)c12 (stereo not drawn) [Example 80, 4-({5-methylthieno[2,3-d]pyrimidin-4-yl}amino)-1,2-oxazolidin-3-one]
EC50 (human H1): > 10 µM
EC50 (human H4): > 10 µM

Cc1csc2ncnc(N(C)Cc3ccccc3)c12 [Example 209, N-benzyl-N,5-dimethylthieno[2,3-d]pyrimidin-4-amine]
EC50 (human H1): > 10 µM
EC50 (human H4): > 10 µM

C#CCNc1ncnc2scc(C)c12 [Example 51, 5-methyl-N-(prop-2-yn-1-yl)thieno[2,3-d]pyrimidin-4-amine]
EC50 (human H1): > 10 µM
EC50 (human H4): > 10 µM

Cc1ccc(S(=O)(=O)NCCNc2ncnc3scc(C)c23)cc1 [Example 177, 4-methyl-N-[2-({5-methylthieno[2,3-d]pyrimidin-4-yl}amino)ethyl]benzene-1-sulfonamide]
EC50 (human H1): > 10 µM
EC50 (human H4): > 10 µM
